Type in all cases: functional
For assay [1], the system named is MT4. Nature of the assay: Cytopathogenicity against HIV-1 induced, replication in MT-4 cells was determined. Conditions: Homo sapiens, read-out: ED50 (the source's name). In general terms: Cytopathic effects are the visible damage that an infection or toxin causes in cultured cells.
The test system of assay [2] is MT4. In words: Cytopathogenicity against HIV-2 induced replication in MT-4 cells was determined. As to conditions: Homo sapiens, read-out: ED50 (the source's name).
Assay [3] is described as follows: Ratio of CD50 value to that of ED50 value was determined and expressed as selectivity index.
Assay [4] relates to MT4. Nature of the assay: Cytotoxic dose to reduce the viability of MT-4 cells by 50 % was determined. As to conditions: Homo sapiens, read-out: CD50 (the source's name).

As for `Cc1cn([C@H]2C[C@H](N=[N+]=[N-])[C@@H](CO)O2)c(=O)[nH]c1=O` [ZIDOVUDINE], the EC50 in the assay on MT4 [1] and with MT4 [2] was 4 nM throughout. Also, the Selectivity index in assay [3] was 1580. In the assay with MT4 [4], the CC50 was determined as 6300 nM.
As to `[C-]#[N+]C1CC(n2cc(C)c(=O)[nH]c2=O)OC1CO` (configuration not stated), the EC50 with MT4 [1] and with MT4 [2] was greater than 800 nM each time. Further, in assay [3], the Selectivity index is less than 1.1. The CC50 in the assay with MT4 [4] was 880 nM.
Take `[C-]#[N+]C1CC(n2ccc(=O)[nH]c2=O)OC1CO` (configuration not stated): the EC50 in the assay with MT4 [1] and in the assay on MT4 [2] was greater than 500000 nM each time. The Selectivity index in assay [3] was less than 1. The CC50 in the assay on MT4 [4] was no less than 500000 nM.

The record behind these values is ChEMBL document CHEMBL1124706, “Synthesis, antiretrovirus effects, and phosphorylation kinetics of 3'-isocyano-3'-deoxythymidine and 3'-isocyano-2',3'-dideoxyuridine” (1990).
